The source of these data is patent publication US20100076024A1, “Novel Compounds as Serine Protease Inhibitors” (priority 2007, published 2010).

Chain of recombinant human DPP-4 (P27487 whole entry): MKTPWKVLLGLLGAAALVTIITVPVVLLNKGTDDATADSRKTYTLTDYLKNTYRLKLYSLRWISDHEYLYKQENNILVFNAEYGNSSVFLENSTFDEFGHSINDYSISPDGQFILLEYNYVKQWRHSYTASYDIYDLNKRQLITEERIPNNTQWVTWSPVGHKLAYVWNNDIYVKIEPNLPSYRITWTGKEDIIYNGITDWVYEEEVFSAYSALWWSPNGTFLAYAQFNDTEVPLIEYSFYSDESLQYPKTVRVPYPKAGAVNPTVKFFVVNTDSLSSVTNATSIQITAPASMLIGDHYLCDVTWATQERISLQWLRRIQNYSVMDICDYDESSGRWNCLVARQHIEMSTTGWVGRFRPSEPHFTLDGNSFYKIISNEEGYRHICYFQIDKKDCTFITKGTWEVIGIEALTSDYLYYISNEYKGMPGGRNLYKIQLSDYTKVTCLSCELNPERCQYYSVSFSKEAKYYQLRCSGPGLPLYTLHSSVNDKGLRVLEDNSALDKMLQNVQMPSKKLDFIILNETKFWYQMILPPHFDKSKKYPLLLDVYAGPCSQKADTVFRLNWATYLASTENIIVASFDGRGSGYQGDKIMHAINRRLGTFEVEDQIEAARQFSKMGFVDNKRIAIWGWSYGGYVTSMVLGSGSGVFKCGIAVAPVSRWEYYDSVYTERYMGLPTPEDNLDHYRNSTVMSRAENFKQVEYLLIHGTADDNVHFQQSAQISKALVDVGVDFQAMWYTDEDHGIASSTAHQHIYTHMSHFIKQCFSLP

The first assay concerns the target recombinant human DPP-4 (Homo sapiens, UniProt P27487). The assay is described as follows: recombinant human DPP-4 fluorogenic substrate cleavage assay. Format: biochemical. The conditions noted are these: compound 10 uM; substrate (H-Ala-Pro)-2-Rh110 10 μM; 1 hour pre-incubation, room temperature. The protocol:
For compound screening, the assay employed measures the activity of recombinant human DPP-4 to cleave the synthetic fluorogenic substrate (H-Ala-Pro)-2—Rh110. The reaction is run in 384-well plates. Compound solutions in assay buffer are pre-incubated with the human recombinant DPP-4 and the reaction is initiated by the addition of the substrate. The product of the reaction is quantified by measuring the fluorescence intensity using Tecan Ultraplate reader. For each compound concentration tested, the percent of inhibition is calculated.
For the determination of IC50 and/or % of inhibition values, the assay is performed at room temperature in 384-well plates using a TECAN Ultra plate reader. Total assay volume is 30 μl. Test compounds are dissolved in 90% (v/v) DMSO/water and diluted in water containing 0.05% (w/v) CHAPS to 3-times the desired assay concentration. For the assay, 10 μl water/CHAPS (±test compound) are added per well, followed by the addition of 10 μl hDPP4 solution (diluted with 1.5× assay buffer, i.e. 37.5 mM Tris/HCl, pH 7.4, 210 mM NaCl, 15 mM KCl, and 0.05% (w/v) CHAPS). The final assay concentrations are […] for hDPP4 according to the enzyme concentrations determined by the Bradford method. After 1 hour of pre-incubation at room temperature, the reaction is started by the addition of 10 μl substrate solution (substrate dilutes in 1.5× assay buffer, final substrate concentration is 10 μM). The effect of the compound on the enzymatic activity is obtained from the linear progression curves and determined from two readings, the first one taken directly after the addition of substrate (t=0 min) and the second one after 1 hour (t=60 min). The apparent inhibition constant, IC50, is calculated from the plot of percentage of inhibition vs. inhibitor concentration using non-linear regression analysis software (XLfit, Vers. 4.0; ID Business Solution Ltd., Guildford, Surrey, UK).
Consider `N[C@@H](CCN1CC[C@H](c2ccc(F)cc2)C1)Cc1cc(F)c(F)cc1F` [Compound 29], for which the “% Inhib at 10 uM” value stood at 99.4%.

The same assay, now with this note: compound 10 uM; substrate (H-Ala-Pro)-2-Rh110 10 μM; 1 hour pre-incubation, room temperature; read-out: % Inhib at 10 uM.
`N[C@@H](CCN1CCCC(c2ccccc2C(F)(F)F)C1)Cc1cc(F)c(F)cc1F` (stereo partly drawn) [Compound 7, (R)-1-(2,4,5-Trifluoro-benzyl)-3-[3-(2-trifluoromethyl-phenyl)-piperidin-1-yl]-propylamine]: the inhibition at 10 µM was 98.3%.
Same read-out and setting: the value for `COc1cccc(C2CCN(CC[C@H](N)Cc3cc(F)c(F)cc3F)C2)c1` (stereo partly drawn) [Compound 18, (R)-3-[3-(3-Methoxy-phenyl)-pyrrolidin-1-yl]-1-(2,4,5-trifluoro-benzyl)-propylamine] was 99.2%; that for `COCC1CCCN(CC[C@H](N)Cc2cc(F)c(F)cc2F)C1` (stereo partly drawn) [Compound 26, (R)-3-(3-Methoxymethyl-piperidin-1-yl)-1-(2,4,5-trifluoro-benzyl)-propylamine] was 99.5%.
Take `COc1ccccc1C1CCCN(CC[C@H](N)Cc2cc(F)c(F)cc2F)C1` (stereo partly drawn) [Compound 4, (R)-3-[3-(2-Methoxy-phenyl)-piperidin-1-yl]-1-(2,4,5-trifluoro-benzyl)-propylamine]: the inhibition at 10 µM was 98.9%.
For `N[C@@H](CCN1CCCC(c2ccc3c(c2)OCO3)C1)Cc1cc(F)c(F)cc1F` (stereo partly drawn) [Compound 27, (R)-3-(3-Benzo[1,3]dioxol-5-yl-piperidin-1-yl)-1-(2,4,5-trifluoro-benzyl)-propylamine], the inhibition at 10 µM worked out at 99.7%.
On the same count and under the same terms, next, `Cc1ccccc1C1CCCN(CC[C@H](N)Cc2cc(F)c(F)cc2F)C1` (stereo partly drawn) [Compound 10, (R)-3-(3-o-Tolyl-piperidin-1-yl)-1-(2,4,5-trifluoro-benzyl)-propylamine]: 99.4%; `N[C@@H](CCN1CCCC(c2cccc(C(F)(F)F)c2)C1)Cc1cc(F)c(F)cc1F` (stereo partly drawn) [Compound 6, (R)-1-(2,4,5-Trifluoro-benzyl)-3-[3-(3-trifluoromethyl-phenyl)-piperidin-1-yl]-propylamine]: 98.9%; `N[C@@H](CCN1CCC(c2ccc(C(F)(F)F)cc2)C1)Cc1cc(F)c(F)cc1F` (stereo partly drawn) [Compound 20, (R)-1-(2,4,5-Trifluoro-benzyl)-3-[3-(4-trifluoromethyl-phenyl)-pyrrolidin-1-yl]-propylamine]: 99.1%.
Take `N[C@@H](CCN1CCC(c2ccccc2Cl)C1)Cc1cc(F)c(F)cc1F` (stereo partly drawn) [Compound 16, (R)-3-[3-(2-Chloro-phenyl)-pyrrolidin-1-yl]-1-(2,4,5-trifluoro-benzyl)-propylamine]: the inhibition at 10 µM amounted to 99.5%.
As for `N[C@@H](CCN1CCCC(c2ccc(C(F)(F)F)cc2)C1)Cc1cc(F)c(F)cc1F` (stereo partly drawn) [Compound 5, (R)-1-(2,4,5-Trifluoro-benzyl)-3-[3-(4-trifluoromethyl-phenyl)-piperidin-1-yl]-propylamine], the inhibition at 10 µM was determined as 99.3%.
Turning to `N[C@@H](CCN1CCC(c2cccc(F)c2)C1)Cc1cc(F)c(F)cc1F` (stereo partly drawn) [Compound 22, (R)-3-[3-(3-Fluoro-phenyl)-pyrrolidin-1-yl]-1-(2,4,5-trifluoro-benzyl)-propylamine], the inhibition at 10 µM is 99.6%.
Still for that read-out and setting: the value for `N[C@@H](CCN1CCCCC1)Cc1cc(F)c(F)cc1F` [Compound 24, (R)-3-Piperidin-1-yl-1-(2,4,5-trifluoro-benzyl)-propylamine] was 99.3%.
As for `COc1ccc(C2CCN(CC[C@H](N)Cc3cc(F)c(F)cc3F)C2)cc1` (stereo partly drawn) [Compound 17, (R)-3-[3-(4-Methoxy-phenyl)-pyrrolidin-1-yl]-1-(2,4,5-trifluoro-benzyl)-propylamine], the inhibition at 10 µM was found to be 98.4%.
Same read-out and setting: next, `Cc1ccc(C2CCCN(CC[C@H](N)Cc3cc(F)c(F)cc3F)C2)cc1` (stereo partly drawn) [Compound 8, (R)-3-(3-p-Tolyl-piperidin-1-yl)-1-(2,4,5-trifluoro-benzyl)-propylamine]: 99.6%; `CC1CCCN(CC[C@H](N)Cc2cc(F)c(F)cc2F)C1` (stereo partly drawn) [Compound 25, (R)-3-(3-Methyl-piperidin-1-yl)-1-(2,4,5-trifluoro-benzyl)-propylamine]: 98.6%.
In the case of `COc1cccc(C2CCCN(CC[C@H](N)Cc3cc(F)c(F)cc3F)C2)c1` (stereo partly drawn) [Compound 3, (R)-3-[3-(3-Methoxy-phenyl)-piperidin-1-yl]-1-(2,4,5-trifluoro-benzyl)-propylamine], the inhibition at 10 µM was 97.9%.
As for `N[C@@H](CCN1CCC(c2ccc(F)cc2)C1)Cc1cc(F)c(F)cc1F` (stereo partly drawn) [Compound 21, (R)-3-[3-(4-Fluoro-phenyl)-pyrrolidin-1-yl]-1-(2,4,5-trifluoro-benzyl)-propylamine], the inhibition at 10 µM amounted to 99.6%.
Take `N[C@@H](CCN1CCC(c2cccc(Cl)c2)C1)Cc1cc(F)c(F)cc1F` (stereo partly drawn) [Compound 15, (R)-3-[3-(3-Chloro-phenyl)-pyrrolidin-1-yl]-1-(2,4,5-trifluoro-benzyl)-propylamine]: the inhibition at 10 µM was 99.3%.
Same read-out and setting: next, `N[C@@H](CCN1CCCC(c2ccc(F)cc2)C1)Cc1cc(F)c(F)cc1F` (stereo partly drawn) [Compound 11, (R)-3-[3-(4-Fluoro-phenyl)-piperidin-1-yl]-1-(2,4,5-trifluoro-benzyl)-propylamine]: 99.6%; `N[C@@H](CCN1CCCC(c2ccccc2)C1)Cc1cc(F)c(F)cc1F` (stereo partly drawn) [Compound 1, (R)-3-(3-Phenyl-piperidin-1-yl)-1-(2,4,5-trifluoro-benzyl)-propylamine]: 99.9%; `Cc1cccc(C2CCCN(CC[C@H](N)Cc3cc(F)c(F)cc3F)C2)c1` (stereo partly drawn) [Compound 9, (R)-3-(3-m-Tolyl-piperidin-1-yl)-1-(2,4,5-trifluoro-benzyl)-propylamine]: 99.7%.
`N[C@@H](CCN1CCC(c2ccccc2)C1)Cc1cc(F)c(F)cc1F` (stereo partly drawn) [Compound 14, (R)-3-(3-Phenyl-pyrrolidin-1-yl)-1-(2,4,5-trifluoro-benzyl)-propylamine]: the inhibition at 10 µM amounted to 99.6%.
With `N[C@@H](CCN1CCCC1)Cc1cc(F)c(F)cc1F` [Compound 28, (R)-3-Pyrrolidin-1-yl-1-(2,4,5-trifluoro-benzyl)-propylamine], the inhibition at 10 µM stood at 99.1%.
In the case of `COc1ccccc1C1CCN(CC[C@H](N)Cc2cc(F)c(F)cc2F)C1` (stereo partly drawn) [Compound 19, (R)-3-[3-(2-Methoxy-phenyl)-pyrrolidin-1-yl]-1-(2,4,5-trifluoro-benzyl)-propylamine], the inhibition at 10 µM is 99.2%.
On to `N[C@@H](CCN1CCC(c2ccccc2F)C1)Cc1cc(F)c(F)cc1F` (stereo partly drawn) [Compound 23, (R)-3-[3-(2-Fluoro-phenyl)-pyrrolidin-1-yl]-1-(2,4,5-trifluoro-benzyl)-propylamine], for which the inhibition at 10 µM was determined as 99.5%.
On the same count and under the same terms, next, `N[C@@H](CCN1CCCC(c2cccc(F)c2)C1)Cc1cc(F)c(F)cc1F` (stereo partly drawn) [Compound 12, (R)-3-[3-(3-Fluoro-phenyl)-piperidin-1-yl]-1-(2,4,5-trifluoro-benzyl)-propylamine]: 99.7%; `COc1ccc(C2CCCN(CC[C@H](N)Cc3cc(F)c(F)cc3F)C2)cc1` (stereo partly drawn) [Compound 2, (R)-3-[3-(4-Methoxy-phenyl)-piperidin-1-yl]-1-(2,4,5-trifluoro-benzyl)-propylamine]: 99.5%.
